Test results from patent US10975068B2, “6-aminopyridin-3-yl thiazoles as modulators of RORγT” (Janssen Pharmaceutica NV, priority 2016, dated 2021).

How the values were obtained:
[1] = target: human RORγt ligand binding domain (RORγt LBD) (Homo sapiens (Human), UniProt P51449); assay: RORγt ThermoFluor® assay (thermal shift binding); conditions: for Kd: read-out: ThermoFluor® Assay, Kd
Procedure, shortened: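 Binding was inferred from thermal stabilisation (ΔTm) of the E. coli-expressed RORγt LBD (0.065 mg/mL), monitored by 1,8-ANS (60 μM) emission at 500 nm during a 1 °C/min ramp. Buffer was Hepes 100 mM pH 7.0 with NaCl, GSH and Tween-20.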

[2] = test system: IL-17 production by CD4 T cells; assay: Human Th17 assay; assay type: cell-based; conditions: read-out: Human Th17 Assay, IC50
Description: The human Th17 assay tests the effect of RORγt modulatory compounds on IL-17 production by CD4 T cells under conditions which favor Th17 differentiation. Total CD4^+ T cells were isolated from the peripheral blood mononuclear cells (PBMC) of healthy donors using a CD4^+ T cell isolation kit II, following the manufacturer's instructions (Miltenyi Biotec). Cells were resuspended in a medium of RPMI-1640 supplemented with 10% fetal bovine serum, penicillin, streptomycin, glutamate, and β-mercaptoethanol and were added to 96-well plates at 1.5×10^5 per 100 μL per well. 50 μL of compound at titrated concentrations in DMSO were added into each well at final DMSO concentration at 0.2%. Cells were incubated for 1 hour, then 50 μL of Th17 cell differentiation medium was added to each well. The final concentrations of antibodies and cytokines (R&D Systems) in differentiation medium were: 3×10^6/mL anti-CD3/CD28 beads (prepared using human T cell activation/expansion kit, Miltenyi Biotec), 10 μg/mL anti-IL4, 10 μg/mL anti-IFNγ, 10 ng/mL IL1β, 10 ng/mL IL23, 50 ng/mL IL6, 3 ng/mL TGFβ and 20 U/mL IL2. Cells were cultured at 37° C. and 5% CO2 for 3 days. Supernatants were collected and the accumulated IL-17 in culture was measured by using MULTI-SPOT® Cytokine Plate following manufacture's instruction (Meso Scale Discovery). The plate was read using Sector Imager 6000, and IL-17 concentration was extrapolated from the standard curve. The IC50s were determined by GraphPad.

[3] = target: T1, full-length human RORγt (Homo sapiens (Human), UniProt P51449); assay: RORγt (full-length human) reporter assay, Conditions A; assay type: cell-based; conditions: for IC50: read-out: RORγt (FL) Reporter Assay A, IC50; for inhibition at 6 µM: read-out: RORγt (FL) Reporter Assay A, % inhibition @ 6 μM
T1 sequence (P51449 other isoform, or with tags, fused parts or gaps): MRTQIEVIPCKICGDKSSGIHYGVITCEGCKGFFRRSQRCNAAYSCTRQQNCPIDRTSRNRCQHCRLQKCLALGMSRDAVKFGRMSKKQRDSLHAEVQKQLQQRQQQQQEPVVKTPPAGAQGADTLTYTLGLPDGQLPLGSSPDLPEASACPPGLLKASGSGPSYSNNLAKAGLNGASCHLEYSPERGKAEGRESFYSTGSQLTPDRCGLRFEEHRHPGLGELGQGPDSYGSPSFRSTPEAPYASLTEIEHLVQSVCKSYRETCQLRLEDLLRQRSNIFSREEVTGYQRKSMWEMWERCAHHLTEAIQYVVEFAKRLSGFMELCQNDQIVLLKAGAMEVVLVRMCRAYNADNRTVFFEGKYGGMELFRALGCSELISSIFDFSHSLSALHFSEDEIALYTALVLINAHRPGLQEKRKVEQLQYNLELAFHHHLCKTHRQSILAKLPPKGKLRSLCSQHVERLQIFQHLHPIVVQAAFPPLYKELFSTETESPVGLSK
Description: RORγt (Full-Length Human) Reporter Assay:
Cells used in this assay were transiently co-transfected with three different plasmids, one expressing the GAL4-DNA binding domain (DBD)-RORγt fusion protein under control of a CMV promoter (NH2-Gal4-DBD:RORC-COOH in pCMV-BD, Stratagene #211342), and two reporter plasmids—the firefly luciferase reporter under control of a GAL4 promoter (pFR-Luc 2×GAL4) and Renilla luciferase reporter under control of CMV promoter (pRL-CMV, Promega # E2261). The full-length coding sequence was used for human RORγt, i.e., nucleotides 142-1635 of human RORγt, transcript variant 2, NCBI Accession: NM_001001523.1 (SEQ ID NO:1). HEK293T cells were plated at 35000 per well in 96-well plate in medium of MEM with 8.6% FBS. After 18-22 hours incubation, the transfection was carried out by using a PEI solution with 170.5 ng total DNA/well (50 ng pCMV-BD-ROR plus 20 ng of pFR-Luc reporter and 0.5 ng of pRL-CMV reporter plus 100 ng Carrier DNA (Clontech #630440) for each well). 4-6 hours after transfection, cells were treated with compounds for overnight in the medium with final concentration of FBS 1.1% and DMSO 0.1%. After overnight (16 to 20 hours) incubation, media were removed and cells were lysed with 20 μL 1× Passive Lysis Buffer (Promega) for 10-15 minutes. Luminescence was measured using a BMG LUMIstar OPTIMA plate reader, after addition of 75 μL/well firefly luciferase buffer, followed by 75 μL/well Renilla luciferase buffer. To calculate the effect of compounds on RORγt activity, firefly values were normalized against values of DMSO only and values of reference compound at saturating concentration, then further normalized against Renilla signals. IC50s were generated by plotting final Renilla normalized data against compound concentration and percent inhibition was calculated against DMSO control.

[4] = test system: obese diabetic mice; conditions: cited from earlier work
[5] = target: T1, full-length human RORγt; assay: RORγt (full-length human) reporter assay, Conditions B or C; assay type: cell-based
Procedure, shortened: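 Readout is dual luciferase: firefly (GAL4-driven) normalized to DMSO-only and saturating-reference controls, then to CMV-Renilla. Full-length human RORγt fused to GAL4-DBD was transiently expressed in HEK293T; compound exposure ran overnight (16-20 h) starting 4-6 h after transfection, final FBS 1.3%, DMSO 0.1%.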

[6] = test system: mice; conditions: cited from earlier work

Sequence of human RORγt ligand binding domain (RORγt LBD) (P51449 other isoform, or with tags, fused parts or gaps): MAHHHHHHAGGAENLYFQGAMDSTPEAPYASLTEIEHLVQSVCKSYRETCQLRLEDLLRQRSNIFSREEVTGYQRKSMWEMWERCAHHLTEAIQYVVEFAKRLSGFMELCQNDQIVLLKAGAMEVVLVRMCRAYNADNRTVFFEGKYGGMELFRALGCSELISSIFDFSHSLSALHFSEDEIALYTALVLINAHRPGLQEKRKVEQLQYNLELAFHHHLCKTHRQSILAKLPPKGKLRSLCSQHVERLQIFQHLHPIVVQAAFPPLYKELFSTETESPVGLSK

Row | SMILES | Kd [1] | IC50 [2] | inhibition at 6 µM ([3]; Conditions A) | IC50 ([3]; Conditions A) | other results
1 | CC(C)Nc1cc(C(F)(F)F)c(-c2sc(C(=O)NCC(C)(C)O)nc2C(=O)N2CCC(F)CC2)cn1 [Example 12, 4-(4-Fluoropiperidine-1-carbonyl)-N-(2-hydroxy-2-methylpropyl)-5-(6-(isopropylamino)-4-(trifluoromethyl)pyridin-3-yl)thiazole-2-carboxamide] | 63 nM | 190 nM | 92% | – | fold improvement in RORγt Thermofluor® binding assay activity ([1]; compared to Comparator Example 3): over 800 fold; IC50 ([3]; HEK293T cells): 850 nM
2 | C[C@H]1CCCN1C(=O)c1nc(C(=O)NCC(C)(C)O)sc1-c1cnc(NC2CCCCC2)cc1C(F)(F)F [Example 19, (S)-5-(6-(Cyclohexylamino)-4-(trifluoromethyl)pyridin-3-yl)-N-(2-hydroxy-2-methylpropyl)-4-(2-methylpyrrolidine-1-carbonyl)thiazole-2-carboxamide] | 4.4 nM | 40 nM | 99% | 32 nM | –
3 | CC(=O)N1CCN(Cc2ccc(-c3ccc(C(O)(C(F)(F)F)C(F)(F)F)cc3)cc2)CC1 [SR1555] | – | – | – | – | body weight [4]: reduced; fat mass [4]: significant reduction; food intake [4]: modest reduction; insulin sensitivity [4]: improved
4 | CC(C)(O)CNC(=O)c1nc(C(=O)N2CCC(F)CC2)c(-c2cnc(NC3CCCCC3)cc2C(F)(F)F)s1 [Example 3, 5-(6-(Cyclohexylamino)-4-(trifluoromethyl)pyridin-3-yl)-4-(4-fluoropiperidine-1-carbonyl)-N-(2-hydroxy-2-methylpropyl)thiazole-2-carboxamide] | 9.6 nM | 40 nM | – | 35 nM | RORγt (FL) Reporter Assay A, % inhibition (value marked **) ([3]; Conditions A, marked **: footnote not shown): 106** %
5 | C[C@H]1CCCCN1C(=O)c1nc(C(=O)NCC(C)(C)O)sc1-c1cnc(NC2CCCCC2)cc1C1CC1 [Example 76, (S)-5-(6-(Cyclohexylamino)-4-cyclopropylpyridin-3-yl)-N-(2-hydroxy-2-methylpropyl)-4-(2-methylpiperidine-1-carbonyl)thiazole-2-carboxamide] | – | 20 nM | – | – | IC50 ([5]; Conditions B or C, read-out: RORγt (FL) Reporter Assay B or C, IC50): 3.8 nM; inhibition at 6 µM ([5]; read-out: RORγt (FL) Reporter Assay B or C, % inhibition @ 6 μM, Conditions B or C, @ 6 μM): 108%
6 | CC(=O)Nc1nc(C)c(S(=O)(=O)Nc2ccc(C(O)(C(F)(F)F)C(F)(F)F)cc2)s1 [SR1001] | – | – | – | – | Th17-dependent learned helplessness [6]: reduced Th17-dependent learned helplessness
7 | CC(C)(O)CNC(=O)c1nc(C(=O)N2CCC(F)CC2)c(-c2cnc(NC3CCCCC3)cc2C2CC2)s1 [Example 64, 5-(6-(Cyclohexylamino)-4-cyclopropylpyridin-3-yl)-4-(4-fluoropiperidine-1-carbonyl)-N-(2-hydroxy-2-methylpropyl)thiazole-2-carboxamide] | 17 nM | 220 nM | 96% | 63 nM | –
